Key:
Test in all cases: relative viability (nuclei count vs DMSO), 5 days (fraction); higher = more cells survive
AT-7519 + Palbociclib = compound: O=C(NC1CCNCC1)c1n[nH]cc1NC(=O)c1c(Cl)cccc1Cl [AT-7519] + CC(=O)c1c(C)c2cnc(Nc3ccc(N4CCNCC4)cn3)nc2n(C2CCCC2)c1=O [Palbociclib] (partner 0.5 µM)
How it was run: (§1)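 Lung cancer cell lines, seeded in 1536-well plates, were treated the following day by pin tool with a single drug or with five library-drug doses (not always all listed) in √10 steps on top of a fixed anchor-drug dose. Cells were fixed and nuclei stained in one step after 5 days, and nuclei were counted. Relative viability is the nuclei count for treated wells divided by that for vehicle wells, reported as medians of duplicate plates.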

AT-7519 + Tozasertib = compound: O=C(NC1CCNCC1)c1n[nH]cc1NC(=O)c1c(Cl)cccc1Cl [AT-7519] + Cc1cc(Nc2cc(N3CCN(C)CC3)nc(Sc3ccc(NC(=O)C4CC4)cc3)n2)n[nH]1 [Tozasertib] (partner 0.1 µM)
How it was run: as §1

AT-7519 + Alpelisib = compound: O=C(NC1CCNCC1)c1n[nH]cc1NC(=O)c1c(Cl)cccc1Cl [AT-7519] + Cc1nc(NC(=O)N2CCC[C@H]2C(N)=O)sc1-c1ccnc(C(C)(C)C(F)(F)F)c1 [Alpelisib] (partner 2 µM)
How it was run: as §1

AT-7519 + Phenformin = compound: O=C(NC1CCNCC1)c1n[nH]cc1NC(=O)c1c(Cl)cccc1Cl [AT-7519] + N=C(N)NC(=N)NCCc1ccccc1 [Phenformin] (partner 250 µM)
How it was run: as §1

Cell Line	relative viability (AT-7519 + Palbociclib; first compound 0.01 µM)	relative viability (AT-7519 + Palbociclib; first compound 0.03162 µM)	relative viability (AT-7519 + Palbociclib; first compound 0.3162 µM)	relative viability (AT-7519 + Palbociclib; first compound 1 µM)	relative viability (AT-7519 + Tozasertib; first compound 0.01 µM)	relative viability (AT-7519 + Tozasertib; first compound 0.03162 µM)	relative viability (AT-7519 + Tozasertib; first compound 0.3162 µM)	relative viability (AT-7519 + Tozasertib; first compound 1 µM)	relative viability (AT-7519 + Alpelisib; first compound 0.01 µM)	relative viability (AT-7519 + Alpelisib; first compound 0.03162 µM)	relative viability (AT-7519 + Alpelisib; first compound 0.3162 µM)	relative viability (AT-7519 + Alpelisib; first compound 1 µM)	relative viability (AT-7519 + Phenformin; first compound 0.01 µM)	relative viability (AT-7519 + Phenformin; first compound 0.03162 µM)	relative viability (AT-7519 + Phenformin; first compound 0.3162 µM)	relative viability (AT-7519 + Phenformin; first compound 1 µM)
201T	0.339	0.34	0.32	0.363	1.01	1.01	0.946	0.977	0.972	1.05	1.02	1.09	0.461	0.441	0.486	0.473
A549									0.882	0.708	0.69	0.322	0.131	0.153	0.158	0.0741
A-427	0.551	0.491	0.467	0.327	0.26	0.211	0.207	0.14	1.11	1.06	1.01	0.453	0.233	0.315	0.238	0.222
ABC-1	0.778	0.702	0.549	0.442	0.199	0.155	0.189	0.195	0.962	1.01	0.724	0.416	0.245	0.242	0.234	0.164
BEN	0.5	0.515	0.455	0.461	0.391	0.459	0.501	0.597	1.03	0.954	1.12	0.76	0.522	0.234	0.269	0.257
CAL-12T	0.396	0.471	0.172	0.151	0.298	0.33	0.213	0.122	1.27	1.02	0.534	0.13	0.531	0.579	0.272	0.188
COR-L23	0.306	0.28	0.265	0.157	0.177	0.189	0.148	0.144	0.987	0.746	0.348	0.119	0.459	0.412	0.287	0.144
COR-L 105	0.382	0.416	0.371	0.354	0.327	0.382	0.378	0.413	1.13	0.996	0.927	0.507	0.451	0.489	0.301	0.286
Calu-6									0.995	1.17	0.877	0.391				
ChaGo-K-1	0.952	0.938	0.922	0.869	0.224	0.23	0.215	0.204					0.459	0.392	0.404	0.451
EBC-1									0.863	0.835	0.734	0.55				
EKVX	0.498	0.369	0.299	0.375	0.454	0.389	0.403	0.531	0.836	0.86	0.76	0.745	0.246	0.242	0.259	0.23
EMC-BAC-2	0.504	0.506	0.468	0.513	0.339	0.286	0.302	0.308	0.716	0.699	0.782	0.746	0.52	0.524	0.495	0.585
EPLC-272H	0.346	0.324	0.302	0.307	0.376	0.26	0.39	0.243	0.905	0.957	0.885	0.856	0.272	0.295	0.307	0.198
H3255	0.376	0.309	0.328	0.308	0.998	0.506	0.622	0.582	0.712	0.678	0.833	0.519	0.489	0.384	0.313	0.31
HARA	0.194		0.273	0.233	0.129	0.0981	0.147	0.155	0.836	0.72	0.816	0.541	0.415	0.52	0.503	0.358
HCC-15	0.779	0.717	0.618	0.537	0.378	0.524	0.434	0.199	0.959	0.905	0.763	0.406	0.468	0.422	0.401	0.241
HCC-44	0.975	0.961	0.965	0.901	1.14	0.809	0.303	0.231	0.835	0.835	0.769	0.572	0.15	0.199	0.154	0.205
HCC-78	0.423	0.431	0.611	0.479	0.631	0.451	0.49	0.326	0.142	0.286	0.305	0.283	0.712	0.604	0.596	0.662
HCC-366	0.393	0.228	0.317	0.139	0.0905	0.186	0.119	0.0621	0.362	0.347	0.514	0.228	0.624	0.616	0.613	0.509
HCC-827	0.433	0.494	0.478	0.398	0.399	0.403	0.447	0.645	1.03	0.999	1.02	0.708	0.457	0.437	0.341	0.246
HOP-62	0.422	0.465	0.489	0.489	0.344	0.279	0.353	0.399	1.19	0.965	0.936	0.668	0.706	0.655	0.512	0.679
IA-LM									0.904	0.617	0.779	0.488				
LC-2-ad	0.497	0.466	0.484	0.372	0.49	0.467	0.519	0.266	0.914	0.843	0.904	0.472	0.522	0.573	0.498	0.413

Cell Line	relative viability (AT-7519 + Palbociclib; first compound 0.01 µM)	relative viability (AT-7519 + Palbociclib; first compound 0.03162 µM)	relative viability (AT-7519 + Palbociclib; first compound 0.3162 µM)	relative viability (AT-7519 + Palbociclib; first compound 1 µM)	relative viability (AT-7519 + Tozasertib; first compound 0.01 µM)	relative viability (AT-7519 + Tozasertib; first compound 0.03162 µM)	relative viability (AT-7519 + Tozasertib; first compound 0.3162 µM)	relative viability (AT-7519 + Tozasertib; first compound 1 µM)	relative viability (AT-7519 + Alpelisib; first compound 0.01 µM)	relative viability (AT-7519 + Alpelisib; first compound 0.03162 µM)	relative viability (AT-7519 + Alpelisib; first compound 0.3162 µM)	relative viability (AT-7519 + Alpelisib; first compound 1 µM)	relative viability (AT-7519 + Phenformin; first compound 0.01 µM)	relative viability (AT-7519 + Phenformin; first compound 0.03162 µM)	relative viability (AT-7519 + Phenformin; first compound 0.3162 µM)	relative viability (AT-7519 + Phenformin; first compound 1 µM)
LCLC-97TM1	0.228	0.234	0.215	0.135	0.24	0.208	0.27	0.124	0.29	0.195	0.254	0.162	0.476	0.456	0.42	0.289
LCLC-103H	0.513	0.42	0.432	0.418	0.489	0.408	0.511	0.432	0.956	0.908	0.976	0.952	0.32	0.296	0.313	0.33
LK-2	0.783	0.968	0.675	0.547	0.18	0.165		0.206	0.697	1.12	0.827	0.514	0.278	0.482		0.307
LOU-NH91	0.491	0.552	0.524	0.461	0.722	0.679	0.676	0.57	0.768	0.703	0.729	0.579	0.674	0.743	0.677	0.631
LU99A	0.443	0.411	0.389	0.329	0.26	0.276	0.297	0.218	0.612	0.435	0.478	0.42	0.826	0.769	0.802	0.724
LXF-289	0.597	0.656	0.527	0.577	0.159	0.184	0.195	0.178	1.03	1.07	1.08	0.921	0.574	0.524	0.489	0.53
NCI-H23	0.594	0.508	0.482	0.292	0.332	0.361	0.337	0.395	0.561	0.785	0.68	0.45	0.632	0.794	0.779	0.52
NCI-H322M	0.501	0.486	0.419	0.473	0.493	0.497	0.361	0.196	0.823	0.725	0.721	0.824	0.796	0.784	0.612	0.448
NCI-H358	0.138	0.139	0.108	0.119	0.111	0.116	0.0818	0.0852	0.948	0.712	0.431	0.179	0.342	0.313	0.205	0.087
NCI-H441	0.202	0.195	0.141	0.163	0.788	0.565	0.573	0.343	0.685	0.706	0.617	0.299	0.847	0.955	0.775	0.515
NCI-H460	0.137	0.142	0.0995	0.019	0.699	0.473	0.462	0.193	0.667	0.526	0.322	0.0207	0.636	0.31	0.0379	0.0177
NCI-H520	0.226	0.197	0.209	0.194	0.438	0.453	0.399	0.385	0.81	0.847	0.884	0.478	0.66	0.669	0.422	0.257
NCI-H522	0.969	0.967	0.995	0.788		0.514	0.57	0.486						0.681	0.662	0.675
NCI-H596					0.78	0.811	1	0.849	0.485	0.548	0.191	0.41	0.732	0.653	0.642	0.714
NCI-H647	0.442	0.369	0.413	0.19	0.44	0.218	0.22	0.227	1.13	1.07	0.967	0.53	0.619	0.529	0.335	0.281
NCI-H1299									1.1	1.08	1.17	1.15				
NCI-H1563									0.868	0.942	0.942	0.781	0.66	0.625	0.645	0.651
NCI-H1648	0.32		0.242	0.245	0.37		0.371	0.405								
NCI-H1650	0.284	0.331	0.27	0.164	0.532	0.436	0.392	0.148					0.466	0.427	0.292	0.15
NCI-H1703									0.282	0.297	0.299	0.156				
NCI-H1792			0.692	0.837					0.324	0.536	0.767	0.51	0.208	0.22	0.315	0.163
NCI-H2342	0.53	0.491	0.497	0.533	0.483	0.52	0.493	0.557					0.595	0.605	0.509	0.512
SW 900	0.552	0.595	0.512	0.463	0.613	0.484	0.639	0.375					0.697	0.645	0.604	0.196
